The target of this experiment is T1, Nav1.7 (or SCN9A) channel; HEK cells stably transfected with hSCN9A (Homo sapiens, UniProt Q15858).
T1 construct: expressed in transfected cells
Put plainly: Nav1.7 block, PatchXpress 7000 automated whole-cell voltage clamp, estimated IC50 (EIC50). The experiment is classed as cell-based. As to conditions: estimated IC50; hSCN9A HEK cells, PatchXpress platform; Examples 815-1040.

These results are taken from US8541588B2, “Sulfonamide derivatives” (Pfizer Limited, priority 2009, dated 2013).

The structures appear in SMILES notation.

T1 sequence (Q15858 whole entry): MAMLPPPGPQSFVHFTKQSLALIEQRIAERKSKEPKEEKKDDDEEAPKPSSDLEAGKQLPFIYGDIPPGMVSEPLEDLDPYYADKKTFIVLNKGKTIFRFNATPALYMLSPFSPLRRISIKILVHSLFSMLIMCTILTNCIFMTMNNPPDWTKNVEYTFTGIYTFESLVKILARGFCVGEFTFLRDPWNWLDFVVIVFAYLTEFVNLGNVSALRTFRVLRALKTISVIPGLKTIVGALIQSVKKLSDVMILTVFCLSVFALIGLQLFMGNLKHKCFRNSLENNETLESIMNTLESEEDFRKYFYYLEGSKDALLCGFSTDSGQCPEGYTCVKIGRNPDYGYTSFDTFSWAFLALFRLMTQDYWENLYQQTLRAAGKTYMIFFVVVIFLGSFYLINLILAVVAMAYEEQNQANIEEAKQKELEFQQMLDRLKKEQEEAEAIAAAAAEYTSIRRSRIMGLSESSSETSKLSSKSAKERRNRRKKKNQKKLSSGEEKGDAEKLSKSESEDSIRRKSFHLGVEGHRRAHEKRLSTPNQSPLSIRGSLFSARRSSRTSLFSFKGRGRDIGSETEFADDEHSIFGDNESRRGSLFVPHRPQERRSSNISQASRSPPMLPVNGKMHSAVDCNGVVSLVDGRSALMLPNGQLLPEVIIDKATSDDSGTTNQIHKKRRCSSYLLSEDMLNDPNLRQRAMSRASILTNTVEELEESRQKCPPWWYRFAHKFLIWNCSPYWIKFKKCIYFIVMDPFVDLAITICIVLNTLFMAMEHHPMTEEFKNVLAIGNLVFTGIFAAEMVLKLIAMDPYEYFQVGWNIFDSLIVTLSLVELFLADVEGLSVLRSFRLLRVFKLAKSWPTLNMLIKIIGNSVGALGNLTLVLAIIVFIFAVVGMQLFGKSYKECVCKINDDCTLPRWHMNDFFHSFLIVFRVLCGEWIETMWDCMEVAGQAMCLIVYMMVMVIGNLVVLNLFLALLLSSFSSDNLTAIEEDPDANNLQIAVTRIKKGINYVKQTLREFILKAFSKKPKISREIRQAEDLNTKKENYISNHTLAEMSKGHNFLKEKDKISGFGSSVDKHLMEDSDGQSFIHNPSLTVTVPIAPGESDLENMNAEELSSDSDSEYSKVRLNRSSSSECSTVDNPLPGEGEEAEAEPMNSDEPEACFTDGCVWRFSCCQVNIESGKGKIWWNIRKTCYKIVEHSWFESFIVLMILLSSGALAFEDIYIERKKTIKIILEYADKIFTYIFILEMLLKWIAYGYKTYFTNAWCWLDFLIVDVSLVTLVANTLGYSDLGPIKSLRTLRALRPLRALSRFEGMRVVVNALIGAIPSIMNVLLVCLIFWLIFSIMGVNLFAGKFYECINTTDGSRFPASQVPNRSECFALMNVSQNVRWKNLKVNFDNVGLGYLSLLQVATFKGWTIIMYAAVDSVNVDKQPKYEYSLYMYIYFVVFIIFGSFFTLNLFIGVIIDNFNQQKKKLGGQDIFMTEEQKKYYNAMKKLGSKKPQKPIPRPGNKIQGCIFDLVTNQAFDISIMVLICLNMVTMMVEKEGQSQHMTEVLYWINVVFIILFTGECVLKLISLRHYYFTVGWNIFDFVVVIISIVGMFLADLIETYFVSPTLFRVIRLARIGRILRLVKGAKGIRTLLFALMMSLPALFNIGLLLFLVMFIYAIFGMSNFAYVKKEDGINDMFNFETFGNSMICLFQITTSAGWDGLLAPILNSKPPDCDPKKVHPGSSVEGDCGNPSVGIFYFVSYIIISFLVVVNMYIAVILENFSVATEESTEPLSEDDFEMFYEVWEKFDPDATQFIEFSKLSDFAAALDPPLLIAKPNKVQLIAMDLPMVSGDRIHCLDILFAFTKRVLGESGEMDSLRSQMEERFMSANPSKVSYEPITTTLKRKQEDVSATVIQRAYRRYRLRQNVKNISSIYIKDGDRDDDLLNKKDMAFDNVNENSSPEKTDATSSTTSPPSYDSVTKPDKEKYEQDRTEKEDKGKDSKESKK

As to `O=S(=O)(Nc1ncns1)c1cc(F)c(Oc2ccc(C(F)(F)F)cc2-c2cccnn2)cc1F` [Example 920, 2,5-difluoro-4-[2-pyridazin-3-yl-4-(trifluoromethyl)phenoxy]-N-1,2,4-thiadiazol-5-ylbenzenesulfonamide], the IC50 is 310 nM.

For `Cn1nccc1-c1cc(Cl)ccc1Oc1ccc(S(=O)(=O)Nc2cnsn2)cc1C#N` [Example 921, 4-[4-chloro-2-(1-methyl-1H-pyrazol-5-yl)phenoxy]-3-cyano-N-1,2,5-thiadiazol-3-ylbenzenesulfonamide], the IC50 is 3900 nM. In the case of `Cn1nccc1-c1cc(Cl)ccc1Oc1ccc(S(=O)(=O)Nc2cc[nH]n2)cc1C#N` [Example 922, 4-[4-chloro-2-(1-methyl-1H-pyrazol-5-yl)phenoxy]-3-cyano-N-1H-pyrazol-3-ylbenzenesulfonamide], the IC50 was more than 10000 nM. For the molecule `Cn1nccc1-c1cc(Cl)ccc1Oc1ccc(S(=O)(=O)Nc2cccnc2)cc1C#N` [Example 923, 4-[4-chloro-2-(1-methyl-1H-pyrazol-5-yl)phenoxy]-3-cyano-N-pyridin-3-ylbenzenesulfonamide], the IC50 was more than 10000 nM.

With `N#Cc1cc(S(=O)(=O)Nc2ncns2)ccc1Oc1cc(F)c(Cl)cc1-c1ccnnc1` [Example 924, 4-(4-chloro-5-fluoro-2-pyridazin-4-ylphenoxy)-3-cyano-N-1,2,4-thiadiazol-5-ylbenzenesulfonamide], the IC50 was 19 nM.

On to `N#Cc1ccc(Oc2cc(F)c(S(=O)(=O)Nc3nncs3)cc2Cl)c(-c2ccnnc2)c1` [Example 925, 5-chloro-4-(4-cyano-2-pyridazin-4-ylphenoxy)-2-fluoro-N-1,3,4-thiadiazol-2-ylbenzenesulfonamide], for which the IC50 was 660 nM. Then `Nc1cc(-c2cc(Cl)ccc2Oc2cc(F)c(S(=O)(=O)Nc3ncccn3)cc2Cl)ccn1` [Example 926, 4-[2-(2-aminopyridin-4-yl)-4-chlorophenoxy]-5-chloro-2-fluoro-N-pyrimidin-2-ylbenzenesulfonamide], with 67 nM. As for `Cn1nccc1-c1cc(Cl)ccc1Oc1ncc(S(=O)(=O)Nc2ncns2)cc1Cl` [Example 927, 5-chloro-6-[4-chloro-2-(1-methyl-1H-pyrazol-5-yl)phenoxy]-N-1,2,4-thiadiazol-5-ylpyridine-3-sulfonamide], the IC50 is 120 nM.

On to `O=S(=O)(Nc1ncns1)c1ccc(Oc2ccc(C(F)(F)F)cc2-c2ccnnc2)c(Cl)c1` [Example 928, 3-chloro-4-[2-pyridazin-4-yl-4-(trifluoromethyl)phenoxy]-N-1,2,4-thiadiazol-5-ylbenzenesulfonamide], for which the IC50 is 3.6 nM.

As to `O=S(=O)(Nc1ncns1)c1ccc(Oc2ccc(C(F)(F)F)cc2-c2ccnnc2)c(F)c1` [Example 929, 3-fluoro-4-[2-pyridazin-4-yl-4-(trifluoromethyl)phenoxy]-N-1,2,4-thiadiazol-5-ylbenzenesulfonamide], the 50% inhibitory concentration (IC50) is 100 nM. Then `O=S(=O)(Nc1ncns1)c1ccc(Oc2cc(F)c(Cl)cc2-c2ccnnc2)c(F)c1` [Example 930, 4-(4-chloro-5-fluoro-2-pyridazin-4-ylphenoxy)-3-fluoro-N-1,2,4-thiadiazol-5-ylbenzenesulfonamide], with 230 nM; and `O=S(=O)(Nc1ncns1)c1cc(F)c(Oc2ccc(F)cc2-c2ccnnc2)cc1F` [Example 931, 2,5-difluoro-4-(4-fluoro-2-pyridazin-4-ylphenoxy)-N-1,2,4-thiadiazol-5-ylbenzenesulfonamide], with 140 nM; and `O=S(=O)(Nc1nncs1)c1cc(Cl)c(Oc2ccc(OC(F)(F)F)cc2-c2ccnnc2)cc1F` [Example 932, 5-chloro-2-fluoro-4-[2-pyridazin-4-yl-4-(trifluoromethoxy)phenoxy]-N-1,3,4-thiadiazol-2-ylbenzenesulfonamide], with 75 nM. As for `N#Cc1cc(S(=O)(=O)Nc2nncs2)ccc1Oc1ccc(OC(F)(F)F)cc1-c1ccnnc1` [Example 933, 3-cyano-4-[2-pyridazin-4-yl-4-(trifluoromethoxy)phenoxy]-N-1,3,4-thiadiazol-2-ylbenzenesulfonamide], the figure is more than 100 nM; as for `O=S(=O)(Nc1ncns1)c1ccc(Oc2cc(Cl)c(F)cc2-c2ccnnc2)c(F)c1` [Example 934, 4-(5-chloro-4-fluoro-2-pyridazin-4-ylphenoxy)-3-fluoro-N-1,2,4-thiadiazol-5-ylbenzenesulfonamide], 53 nM; as for `N#Cc1cc(S(=O)(=O)Nc2ncns2)ccc1Oc1ccc(C(F)(F)F)cc1-c1ccnn1C1CNC1` [Example 935, 4-[2-(1-azetidin-3-yl-1H-pyrazol-5-yl)-4-(trifluoromethyl)phenoxy]-3-cyano-N-1,2,4-thiadiazol-5-ylbenzenesulfonamide], 3.8 nM. As for `O=S(=O)(Nc1ncns1)c1cc(F)c(Oc2cc(F)c(Cl)cc2-c2ccnnc2)cc1F` [Example 936, 4-(4-chloro-5-fluoro-2-pyridazin-4-ylphenoxy)-2,5-difluoro-N-1,2,4-thiadiazol-5-ylbenzenesulfonamide], the figure is 8 nM; as for `O=S(=O)(Nc1ncns1)c1cc(F)c(Oc2cc(Cl)c(F)cc2-c2ccnnc2)cc1F` [Example 937, 4-(5-chloro-4-fluoro-2-pyridazin-4-ylphenoxy)-2,5-difluoro-N-1,2,4-thiadiazol-5-ylbenzenesulfonamide], 19 nM. `N#Cc1cc(S(=O)(=O)Nc2ncns2)ccc1Oc1cc(Cl)c(F)cc1-c1ccnnc1` [Example 938, 4-(5-chloro-4-fluoro-2-pyridazin-4-ylphenoxy)-3-cyano-N-1,2,4-thiadiazol-5-ylbenzenesulfonamide]: the IC50 was 25 nM. As to `O=S(=O)(Nc1nncs1)c1cc(Cl)c(Oc2cc(C(F)(F)F)ccc2-c2ccnnc2)cc1F` [Example 939, 5-chloro-2-fluoro-4-[2-pyridazin-4-yl-5-(trifluoromethyl)phenoxy]-N-1,3,4-thiadiazol-2-ylbenzenesulfonamide], the IC50 is 48 nM.

Take `N#Cc1cc(S(=O)(=O)Nc2ncns2)ccc1Oc1cc(C(F)(F)F)ccc1-c1ccnnc1` [Example 940, 3-cyano-4-[2-pyridazin-4-yl-5-(trifluoromethyl)phenoxy]-N-1,2,4-thiadiazol-5-ylbenzenesulfonamide]: the IC50 was 31 nM. As for `O=S(=O)(Nc1ncccn1)c1cc(Cl)c(Oc2ccc(Cl)cc2-c2ccnnc2)cc1F` [Example 941, 5-chloro-4-(4-chloro-2-pyridazin-4-ylphenoxy)-2-fluoro-N-pyrimidin-2-ylbenzenesulfonamide], the figure is 72 nM; as for `O=S(=O)(Nc1nncs1)c1ccc(Oc2ccc(OC(F)(F)F)cc2-c2ccnnc2)c(Cl)c1` [Example 942, 3-chloro-4-[2-pyridazin-4-yl-4-(trifluoromethoxy)phenoxy]-N-1,3,4-thiadiazol-2-ylbenzenesulfonamide], 35 nM; as for `Cc1cc(S(=O)(=O)Nc2nncs2)c(F)cc1Oc1ccc(Cl)cc1-c1ccnnc1` [Example 943, 4-(4-chloro-2-pyridazin-4-ylphenoxy)-2-fluoro-5-methyl-N-1,3,4-thiadiazol-2-ylbenzenesulfonamide], 77 nM. Then `Nc1cc(-c2cc(Cl)ccc2Oc2ccc(S(=O)(=O)Nc3ccncn3)cc2Cl)ccn1` [Example 944, 4-[2-(2-aminopyridin-4-yl)-4-chlorophenoxy]-3-chloro-N-pyrimidin-4-ylbenzenesulfonamide], with 31 nM.

For orientation: IC50 means the concentration at which inhibition is half-maximal.
